{
  "source": "patent US20100034838A1",
  "about": "“Transdermal Administration of Active Agents for Systemic Effect” (priority 2005, published 2010)",
  "origin": "cited, not measured here",
  "data": [
    {"smiles": "CN1CCCC1c1cccnc1", "note": "(centres unmarked) [nicotine]", "values": [
      {"measurement": "nicotine levels in the blood", "setting": "nicotine patches, approximately 4-6 hours after adhesion of a medicinal patch to the skin", "value": "10 to 15", "unit": "ng/mL"},
      {"measurement": "blood nicotine peak", "setting": "smoking a cigarette, approximately 5 minutes after smoking is commenced", "value": "about 25 ng/ml"}
    ]}
  ]
}
